Experiments:
Format in all cases: cell-based
profilaggrin mRNA = test: Amplification test of profilaggrin mRNA (quantitative real-time PCR) in normal human epidermal cells; conditions: for expression of profilaggrin mRNA, relative to N.C. = 100%: corrected with cyclophilin
Experimental: After samples were prepared using human epidermal cells, RNA of the cells was extracted and the quantity of mRNA of profilaggrin was determined.
Normal human epidermal cells (hereinafter, “epidermal cells”) (from Kurabo Industries Ltd.) were seeded at a cell density of 2.0×10^4 cells/well in a 96-well culture plate using a growth medium (KG2 medium: from Kurabo Industries Ltd.). After the cells were cultured at 37° C. under 5% carbon dioxide for 24 hours, the media were replaced with media (KB2 media not containing bovine pituitary extract: from Kurabo Industries Ltd.) to which Samples 11 to 18 described below were respectively added. Each of Samples 11, 14, and 17 as controls is a medium only. Samples 12, 13, 15, 16, and 18 are different from one another in the type and/or concentration (mass % with respect to the medium) of a diacylglycerol PEG adduct. • Sample 11: Control (N.C.) • Sample 12: GDS12 (0.100%) • Sample 13: GDS12 (0.050%) • Sample 14: Control (N.C.) • Sample 15: GDM12 (0.001%) • Sample 16: GDM12 (0.004%) • Sample 17: Control (N.C.) • Sample 18: GDS23 (0.002%)
Thereafter, the epidermal cells were cultured at 37° C. under 5% carbon dioxide for 3 hours. Subsequently, RNA was extracted from the cells.
Reverse transcription of the extracted RNA was performed to generate cDNA, and the quantity of profilaggrin mRNA was determined by quantitative real-time PCR expression analysis. Cyclophilin was used as an internal standard. In the analysis, the expression level of profilaggrin was corrected with a value of the expression level of cyclophilin as the internal standard in the same sample, and thereafter the correction value for each sample was calculated assuming the correction value for the control N.C. as 100%.

filaggrin [1] = test: Test 1 on promotion of filaggrin production: filaggrin immunostaining of human three-dimensional cultured epidermis model; conditions: 2%, 3.5% solutions in PBS(−) (Samples 2-4)
Experimental: After samples were prepared using a human epidermis model, production of filaggrin was observed by applying two staining methods, that is, an immunostaining method using an anti-filaggrin antibody and the method of Hematoxylin Eosin staining.
A human three-dimensional cultured epidermis model (hereinafter, “epidermis model”) (LabCyteEPI-MODEL24 6D: from Japan Tissue Engineering Co., Ltd.) was subjected to treatment in the following manner to prepare samples.
First, the epidermis model was incubated in an agar medium at room temperature for 24 hours. Thereafter, the epidermis model was cultured in a medium (an assay medium: from Japan Tissue Engineering Co., Ltd.) at 37° C. for 48 hours. […]
Thereafter, an anti-filaggrin antibody (from GeneTex, Inc.) was made to react with that section at 37° C. overnight, and an anti-mouse IgG Alexa Fluor (registered trademark) 488 antibody (from Cell Signaling Technology, Inc.) was further made to react at 37° C. for 2 hours. […] Then, green fluorescence and blue fluorescence were observed using a fluorescence microscope. The green fluorescence indicates the presence of filaggrin. The blue fluorescence is for confirming that there is no abnormality in cells of the epidermis model.

caspase-14 mRNA = test: Caspase-14 mRNA expression (quantitative real-time PCR) in normal human epidermal cells; conditions: for expression of caspase-14 mRNA versus N.C. / expression of caspase-14 mRNA, relative to N.C. = 100%: 3 hours; for expression of caspase-14 mRNA, relative to N.C. = 100%: corrected with cyclophilin
Experimental: After samples were prepared using human epidermal cells, RNA of the cells was extracted and the quantity of caspase-14 mRNA was determined.
Normal human epidermal cells (hereinafter, “epidermal cells”) (from Kurabo Industries Ltd.) were seeded at a cell density of 2.0×10^4 cells/well in a 96-well culture plate using a growth medium (KG2 medium: from Kurabo Industries Ltd.). After the cells were cultured at 37° C. under 5% carbon dioxide for 24 hours, the media were replaced with media (KB2 media not containing bovine pituitary extract: from Kurabo Industries Ltd.) to which Samples 19 to 26 described below were respectively added. Each of Samples 19 and 24 as controls is a medium only. Samples 20, 21, 22, 23, and 25 are different from one another in the type and/or concentration (mass % with respect to the medium) of a diacylglycerol PEG adduct contained in the medium. • Sample 19: Control (N.C.) • Sample 20: GDM12 (0.001%) • Sample 21: GDM12 (0.004%) • Sample 22: GDM12 (0.020%) • Sample 23: GDM12 (0.100%) • Sample 24: Control (N.C.) • Sample 25: GDS23 (0.0004%)
Subsequently, the epidermal cells were cultured at 37° C. under 5% carbon dioxide for 3 hours. Subsequently, RNA was extracted from the cells.
Reverse transcription of the extracted RNA was performed to generate cDNA, and the quantity of caspase-14 mRNA was determined by quantitative real-time PCR expression analysis. Cyclophilin was used as an internal standard. In the analysis, the expression level of caspase-14 was corrected with a value of the expression level of cyclophilin as the internal standard in the same sample, and thereafter the correction value of each sample was calculated, assuming the correction value of the control sample as 100%.

filaggrin [2] = test: Test 2 on promotion of filaggrin production: dot blotting in normal human epidermal cells; conditions: 72 hours
Experimental: After samples were prepared using human epidermal cells, production of filaggrin was observed by dot blotting and the quantity of filaggrin was determined.
Normal human epidermal cells (hereinafter, “epidermal cells”) (from Kurabo Industries Ltd.) were seeded at a cell density of 1.0×10^4 cells/well in a 96-well culture plate using a growth medium (KG2 medium: from Kurabo Industries Ltd.). After the cells were cultured at 37° C. under 5% carbon dioxide for 24 hours, the medium was replaced with media (KB2 media not containing bovine pituitary extract: from Kurabo Industries Ltd.) to which Samples 5 to 10 described below were respectively added. Each of Samples 5 and 8 as controls is a medium only. Samples 6, 7, 9, and 10 are different from one another in the type and/or concentration (mass % with respect to the medium) of a diacylglycerol PEG adduct to be added to the medium. • Sample 5: Control (N.C.) • Sample 6: GDM12 (0.0005%) • Sample 7: GDM12 (0.0010%) • Sample 8: Control (N.C.) • Sample 9: GDS23 (0.0025%) • Sample 10: GDS23 (0.0050%)
Thereafter, for each sample, the epidermal cells were cultured at 37° C. under 5% carbon dioxide for 72 hours. Subsequently, the epidermal cells were cleaned with PBS(−), 0.5% Triton X-100 (containing 2 mM PMSF) was then added, and thereafter the cells were disrupted by sonication.
A fixed amount of the suspension of disrupted cells was blotted on a nitrocellulose membrane and dried overnight. The transfer membrane after drying was immersed in a PBS solution of 1% BSA and blocked at room temperature for 1 hour. Thereafter, the membrane was cleaned with PBS(−), and an anti-human filaggrin antibody (Anti-Filaggrin: from ARGENE SA) was added onto the transfer membrane at a dilution concentration of 1:4000. The mixture was made to react at room temperature for 1 hour, and then the transfer membrane was cleaned with a PBS solution.
Thereafter, an immunohistochemical staining reagent (Histofine Simple Stain MAX-PO(M): from Nichirei Biosciences Inc.) was added onto the transfer membrane at a dilution concentration of 1:100 and was made to react at room temperature for 1 hour. […]
The brightness of each spot in the spot image obtained by dot blotting was quantitively determined using an analyzer (CS Analyzer Version 2.0: from ATTO Corporation).
FIG. 2a illustrates respective spot images for Samples 5, 6 and 7 related to GDM12, and FIG. 2b illustrates the production quantity of filaggrin for each sample determined based on FIG. 2a. The vertical axis of the graph represents the relative quantity when the quantity for the control N.C. is assumed as 100% (the same representation is also applied to graphs in drawings that will be described later).

Substance: PEG-12 glycerol dimyristate [GDM12]
- increase of expression of profilaggrin mRNA versus N.C. (profilaggrin mRNA; 0.001% in medium (Sample 15), 3 hours): slight
- expression of profilaggrin mRNA, relative to N.C. = 100% (profilaggrin mRNA; 0.004% in medium (Sample 16), 3 hours): about 150%
- concentration dependence of production quantity of filaggrin (filaggrin [1]): more as the concentration of the GDM12 solution is higher
- production quantity of filaggrin in the stratum corneum (green fluorescence) versus N.C. (filaggrin [1]; 30 μL on stratum corneum, 18 hours, model recovered 6 days after application): more than that of the epidermis model of N.C.
- expression of caspase-14 mRNA versus N.C. (caspase-14 mRNA; 0.001% in medium (Sample 20)): increased
- expression of caspase-14 mRNA versus N.C. (caspase-14 mRNA; 0.004% in medium (Sample 21)): increased
- expression of caspase-14 mRNA, relative to N.C. = 100% (caspase-14 mRNA; 0.020% in medium (Sample 22)): about 200%
- expression of caspase-14 mRNA, relative to N.C. = 100% (caspase-14 mRNA; 0.100% in medium (Sample 23)): about 400%
- concentration dependence of increase of caspase-14 mRNA (caspase-14 mRNA; Samples 20-23 (0.001% to 0.100%)): the increase is larger as the concentration of GDM12 is higher
- production quantity of filaggrin, relative to N.C. = 100% (filaggrin [2]; 0.0005% in medium (Sample 6)): ≥ 200%
- production quantity of filaggrin, relative to N.C. = 100% (filaggrin [2]; 0.0010% in medium (Sample 7)): ≥ 200%

Substance: PEG-12 glycerol distearate [GDS12]
- expression of profilaggrin mRNA, relative to N.C. = 100% (profilaggrin mRNA; 0.050% in medium (Sample 13), 3 hours): about 150%
- expression of profilaggrin mRNA, relative to N.C. = 100% (profilaggrin mRNA; 0.100% in medium (Sample 12), 3 hours): about 150%
- concentration dependence of increase of profilaggrin mRNA (profilaggrin mRNA; Samples 12 and 13 (0.100%, 0.050%)): the increase is larger as the concentration of GDS12 is higher

Substance: PEG-23 glycerol distearate [GDS23]
- expression of profilaggrin mRNA, relative to N.C. = 100% (profilaggrin mRNA; 0.002% in medium (Sample 18), 3 hours): about 120%
- expression of caspase-14 mRNA, relative to N.C. = 100% (caspase-14 mRNA; 0.0004% in medium (Sample 25)): about 150%
- production quantity of filaggrin, relative to N.C. = 100% (filaggrin [2]; 0.0025% in medium (Sample 9)): about 200%
- production quantity of filaggrin, relative to N.C. = 100% (filaggrin [2]; 0.0050% in medium (Sample 10)): about 200%

Reference: patent US20220062429A1, “METHOD FOR ENHANCING EXPRESSION OF MOISTURIZING-RELATED SUBSTANCE IN EPIDERMIS” (J-Network, Inc., priority 2020, published 2022)
